Assay results: ChEMBL document CHEMBL3751848, “Receptor binding profiles and quantitative structure-affinity relationships of some 5-substituted-N,N-diallyltryptamines” (Bioorg Med Chem Lett, 2016)

Legend:
[1] = molecular target: 5-hydroxytryptamine receptor 1D (Homo sapiens, UniProt P28221); test: Binding affinity to 5-HT 1D (unknown origin) by competition binding assay
[2] = molecular target: 5-hydroxytryptamine receptor 1E (Homo sapiens, UniProt P28566); test: Binding affinity to 5-HT 1E (unknown origin) by competition binding assay
Sequence of 5-hydroxytryptamine receptor 1E (P28566 whole entry): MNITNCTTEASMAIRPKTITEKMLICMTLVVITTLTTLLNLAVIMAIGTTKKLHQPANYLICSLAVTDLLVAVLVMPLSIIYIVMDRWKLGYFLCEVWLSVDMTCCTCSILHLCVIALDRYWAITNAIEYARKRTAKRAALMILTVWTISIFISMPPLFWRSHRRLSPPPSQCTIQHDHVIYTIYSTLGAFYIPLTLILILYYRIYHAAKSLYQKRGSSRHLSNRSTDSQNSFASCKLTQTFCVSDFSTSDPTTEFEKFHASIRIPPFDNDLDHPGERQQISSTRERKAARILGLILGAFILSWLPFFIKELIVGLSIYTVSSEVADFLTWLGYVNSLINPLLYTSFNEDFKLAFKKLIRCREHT

[3] = molecular target: 5-hydroxytryptamine receptor 5A (Homo sapiens, UniProt P47898); test: Binding affinity to 5-HT 5A (unknown origin) by competition binding assay
Sequence of 5-hydroxytryptamine receptor 5A (P47898 whole entry): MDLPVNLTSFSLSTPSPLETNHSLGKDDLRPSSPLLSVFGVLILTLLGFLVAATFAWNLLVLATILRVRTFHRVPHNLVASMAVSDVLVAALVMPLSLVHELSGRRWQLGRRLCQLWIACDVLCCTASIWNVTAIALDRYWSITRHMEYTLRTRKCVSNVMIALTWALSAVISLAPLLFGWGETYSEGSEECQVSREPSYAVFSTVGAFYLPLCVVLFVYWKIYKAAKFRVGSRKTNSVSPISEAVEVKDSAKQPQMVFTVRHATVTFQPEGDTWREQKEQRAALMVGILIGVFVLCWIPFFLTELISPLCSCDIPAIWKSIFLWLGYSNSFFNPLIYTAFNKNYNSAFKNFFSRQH

[4] = molecular target: 5-hydroxytryptamine receptor 7 (Homo sapiens, UniProt P34969); test: Binding affinity to 5-HT 7 (unknown origin) by competition binding assay
Sequence of 5-hydroxytryptamine receptor 7 (P34969 whole entry): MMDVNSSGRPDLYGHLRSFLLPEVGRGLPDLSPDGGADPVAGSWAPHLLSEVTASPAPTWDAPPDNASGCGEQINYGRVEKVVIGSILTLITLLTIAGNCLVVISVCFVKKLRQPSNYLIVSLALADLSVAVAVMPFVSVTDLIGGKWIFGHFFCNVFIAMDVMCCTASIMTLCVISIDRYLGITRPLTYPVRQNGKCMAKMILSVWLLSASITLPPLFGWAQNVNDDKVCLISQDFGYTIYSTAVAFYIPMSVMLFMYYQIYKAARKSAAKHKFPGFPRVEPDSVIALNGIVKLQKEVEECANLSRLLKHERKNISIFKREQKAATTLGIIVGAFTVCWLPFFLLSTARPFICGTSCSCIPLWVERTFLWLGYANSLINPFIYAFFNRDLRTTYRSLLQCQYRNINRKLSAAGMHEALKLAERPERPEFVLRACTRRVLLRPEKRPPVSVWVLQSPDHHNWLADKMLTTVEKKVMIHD

[5] = molecular target: T1, Alpha-1A adrenergic receptor (Homo sapiens, UniProt P35348); test: Binding affinity to alpha-1A adrenergic receptor (unknown origin) by competition binding assay
T1 sequence (P35348 whole entry): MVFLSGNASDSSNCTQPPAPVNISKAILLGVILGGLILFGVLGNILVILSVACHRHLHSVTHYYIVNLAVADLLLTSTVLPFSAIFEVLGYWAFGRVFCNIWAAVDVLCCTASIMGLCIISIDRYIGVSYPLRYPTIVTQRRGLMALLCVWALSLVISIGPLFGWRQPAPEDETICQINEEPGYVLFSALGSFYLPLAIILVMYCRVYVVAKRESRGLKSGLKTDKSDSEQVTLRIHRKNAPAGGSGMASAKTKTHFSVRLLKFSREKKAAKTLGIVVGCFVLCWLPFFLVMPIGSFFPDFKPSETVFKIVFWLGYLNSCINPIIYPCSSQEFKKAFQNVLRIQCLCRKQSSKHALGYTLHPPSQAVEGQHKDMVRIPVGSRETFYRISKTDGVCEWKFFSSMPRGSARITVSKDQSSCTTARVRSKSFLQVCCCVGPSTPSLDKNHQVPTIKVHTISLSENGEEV

[6] = molecular target: T2, Alpha-1B adrenergic receptor (Homo sapiens, UniProt P35368); test: Binding affinity to alpha-1B adrenergic receptor (unknown origin) by competition binding assay
T2 sequence (P35368 whole entry): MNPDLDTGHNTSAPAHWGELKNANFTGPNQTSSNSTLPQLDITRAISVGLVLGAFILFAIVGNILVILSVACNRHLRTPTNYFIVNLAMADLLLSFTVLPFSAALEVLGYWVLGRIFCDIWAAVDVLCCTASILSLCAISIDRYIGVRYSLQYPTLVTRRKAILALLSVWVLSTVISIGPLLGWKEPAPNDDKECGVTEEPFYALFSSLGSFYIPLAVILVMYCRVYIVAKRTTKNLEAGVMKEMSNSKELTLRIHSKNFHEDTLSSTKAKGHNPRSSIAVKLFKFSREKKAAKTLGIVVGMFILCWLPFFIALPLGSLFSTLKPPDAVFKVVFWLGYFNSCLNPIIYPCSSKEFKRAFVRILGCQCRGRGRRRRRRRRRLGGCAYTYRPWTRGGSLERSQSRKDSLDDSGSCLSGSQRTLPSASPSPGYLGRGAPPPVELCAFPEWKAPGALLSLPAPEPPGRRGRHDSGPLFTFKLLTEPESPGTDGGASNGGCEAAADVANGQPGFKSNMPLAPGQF

[7] = molecular target: Alpha-2B adrenergic receptor (Homo sapiens, UniProt P18089); test: Binding affinity to alpha-2B adrenergic receptor (unknown origin) by competition binding assay
Sequence of Alpha-2B adrenergic receptor (P18089 whole entry): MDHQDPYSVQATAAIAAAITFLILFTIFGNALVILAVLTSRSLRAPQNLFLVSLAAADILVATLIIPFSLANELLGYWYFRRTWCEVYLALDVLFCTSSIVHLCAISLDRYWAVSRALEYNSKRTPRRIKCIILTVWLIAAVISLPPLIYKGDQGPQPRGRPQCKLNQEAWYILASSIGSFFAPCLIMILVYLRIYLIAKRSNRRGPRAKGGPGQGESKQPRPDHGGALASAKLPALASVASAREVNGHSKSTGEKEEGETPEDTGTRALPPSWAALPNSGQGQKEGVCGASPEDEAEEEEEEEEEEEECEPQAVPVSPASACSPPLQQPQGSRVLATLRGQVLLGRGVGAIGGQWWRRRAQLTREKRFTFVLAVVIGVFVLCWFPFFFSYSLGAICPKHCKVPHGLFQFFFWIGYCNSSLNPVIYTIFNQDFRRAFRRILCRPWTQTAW

[8] = molecular target: T3, Alpha-2C adrenergic receptor (Homo sapiens, UniProt P18825); test: Binding affinity to alpha-2C adrenergic receptor (unknown origin) by competition binding assay
T3 sequence (P18825 whole entry): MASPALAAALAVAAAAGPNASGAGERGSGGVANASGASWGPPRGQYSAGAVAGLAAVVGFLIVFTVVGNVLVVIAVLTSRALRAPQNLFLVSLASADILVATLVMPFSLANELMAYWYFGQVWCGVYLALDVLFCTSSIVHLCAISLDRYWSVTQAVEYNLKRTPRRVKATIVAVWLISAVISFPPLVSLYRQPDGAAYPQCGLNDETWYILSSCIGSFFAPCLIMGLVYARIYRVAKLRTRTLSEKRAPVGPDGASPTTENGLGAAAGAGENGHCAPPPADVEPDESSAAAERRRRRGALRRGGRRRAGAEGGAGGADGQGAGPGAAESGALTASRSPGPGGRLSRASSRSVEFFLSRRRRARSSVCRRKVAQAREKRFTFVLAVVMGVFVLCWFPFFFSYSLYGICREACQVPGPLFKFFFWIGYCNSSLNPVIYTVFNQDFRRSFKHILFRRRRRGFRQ

[9] = molecular target: D(3) dopamine receptor (Homo sapiens, UniProt P35462); test: Binding affinity to D3 dopamine receptor (unknown origin) by competition binding assay
Sequence of D(3) dopamine receptor (P35462 whole entry): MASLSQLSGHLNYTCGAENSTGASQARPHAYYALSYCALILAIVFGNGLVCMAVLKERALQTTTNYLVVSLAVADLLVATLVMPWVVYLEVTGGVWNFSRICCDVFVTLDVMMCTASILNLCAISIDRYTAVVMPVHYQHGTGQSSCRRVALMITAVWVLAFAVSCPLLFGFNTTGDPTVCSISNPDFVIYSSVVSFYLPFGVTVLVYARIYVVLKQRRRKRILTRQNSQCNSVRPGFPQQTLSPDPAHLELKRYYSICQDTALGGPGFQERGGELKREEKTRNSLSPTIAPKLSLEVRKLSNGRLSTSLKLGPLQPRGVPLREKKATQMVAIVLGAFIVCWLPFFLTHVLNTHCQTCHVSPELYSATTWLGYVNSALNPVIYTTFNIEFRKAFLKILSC

[10] = molecular target: Histamine H1 receptor (Homo sapiens, UniProt P35367); test: Binding affinity to histamine H1 receptor (unknown origin) by competition binding assay
Sequence of Histamine H1 receptor (P35367 whole entry): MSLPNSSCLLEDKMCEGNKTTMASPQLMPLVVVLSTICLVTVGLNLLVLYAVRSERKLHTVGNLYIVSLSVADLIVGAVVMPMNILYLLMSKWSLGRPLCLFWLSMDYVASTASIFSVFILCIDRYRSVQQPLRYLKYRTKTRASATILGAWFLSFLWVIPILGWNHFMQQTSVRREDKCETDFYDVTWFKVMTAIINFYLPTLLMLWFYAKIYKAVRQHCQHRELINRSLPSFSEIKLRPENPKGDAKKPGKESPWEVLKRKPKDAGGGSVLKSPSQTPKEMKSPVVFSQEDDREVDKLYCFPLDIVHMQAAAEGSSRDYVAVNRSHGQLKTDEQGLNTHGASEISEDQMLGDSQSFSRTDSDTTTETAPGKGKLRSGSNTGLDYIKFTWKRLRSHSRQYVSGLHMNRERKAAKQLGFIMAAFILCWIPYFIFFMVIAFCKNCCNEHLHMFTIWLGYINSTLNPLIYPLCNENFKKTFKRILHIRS

[11] = molecular target: Histamine H3 receptor (Homo sapiens, UniProt Q9Y5N1); test: Binding affinity to histamine H3 receptor (unknown origin) by competition binding assay
Sequence of Histamine H3 receptor (Q9Y5N1 whole entry): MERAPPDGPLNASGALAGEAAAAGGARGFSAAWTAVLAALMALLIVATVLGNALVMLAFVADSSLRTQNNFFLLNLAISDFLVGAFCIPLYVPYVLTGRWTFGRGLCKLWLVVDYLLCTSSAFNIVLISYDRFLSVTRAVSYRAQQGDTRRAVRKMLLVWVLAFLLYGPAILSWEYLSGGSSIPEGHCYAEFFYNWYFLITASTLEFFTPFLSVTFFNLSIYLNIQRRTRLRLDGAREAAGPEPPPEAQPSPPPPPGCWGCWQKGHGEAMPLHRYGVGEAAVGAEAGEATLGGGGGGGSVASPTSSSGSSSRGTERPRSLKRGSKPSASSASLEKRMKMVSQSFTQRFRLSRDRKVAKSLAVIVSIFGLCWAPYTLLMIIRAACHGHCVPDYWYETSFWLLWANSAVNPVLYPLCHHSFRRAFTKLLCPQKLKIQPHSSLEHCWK

[12] = molecular target: Sigma non-opioid intracellular receptor 1 (Homo sapiens, UniProt Q99720); test: Binding affinity to sigma 1 receptor (unknown origin) by competition binding assay
Sequence of Sigma non-opioid intracellular receptor 1 (Q99720 whole entry): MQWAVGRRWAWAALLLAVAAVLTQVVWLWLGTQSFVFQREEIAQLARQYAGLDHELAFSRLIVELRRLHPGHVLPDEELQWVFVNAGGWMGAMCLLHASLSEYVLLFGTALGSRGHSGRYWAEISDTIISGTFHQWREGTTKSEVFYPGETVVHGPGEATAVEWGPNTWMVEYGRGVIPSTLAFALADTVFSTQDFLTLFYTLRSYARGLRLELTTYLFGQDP

[13] = Binding affinity to sigma 2 receptor (unknown origin) by competition binding assay; set-up: species or system Homo sapiens
[14] = molecular target: Sodium-dependent dopamine transporter (Homo sapiens, UniProt Q01959); test: Binding affinity to DAT (unknown origin) by competition binding assay
[15] = molecular target: Sodium-dependent noradrenaline transporter (Homo sapiens, UniProt P23975); test: Binding affinity to NET (unknown origin) by competition binding assay
Sequence of Sodium-dependent noradrenaline transporter (P23975 whole entry): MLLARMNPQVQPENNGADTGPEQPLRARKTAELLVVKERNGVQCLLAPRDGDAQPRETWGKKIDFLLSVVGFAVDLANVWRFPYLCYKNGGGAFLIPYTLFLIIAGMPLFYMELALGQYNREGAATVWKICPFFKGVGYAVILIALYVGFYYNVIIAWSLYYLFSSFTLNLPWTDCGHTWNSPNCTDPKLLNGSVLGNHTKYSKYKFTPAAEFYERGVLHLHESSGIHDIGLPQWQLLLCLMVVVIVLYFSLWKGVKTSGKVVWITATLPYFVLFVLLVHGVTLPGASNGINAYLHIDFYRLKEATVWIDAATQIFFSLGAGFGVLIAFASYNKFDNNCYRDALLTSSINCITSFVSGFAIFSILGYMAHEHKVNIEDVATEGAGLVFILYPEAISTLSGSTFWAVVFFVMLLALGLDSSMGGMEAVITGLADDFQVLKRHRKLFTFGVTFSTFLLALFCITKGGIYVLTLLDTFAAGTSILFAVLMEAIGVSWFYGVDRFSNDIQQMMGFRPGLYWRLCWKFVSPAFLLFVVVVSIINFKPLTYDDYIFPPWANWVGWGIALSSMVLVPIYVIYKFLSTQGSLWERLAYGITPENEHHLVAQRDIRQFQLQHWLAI

[16] = molecular target: Sodium-dependent serotonin transporter (Homo sapiens, UniProt P31645); test: Binding affinity to SERT (unknown origin) by competition binding assay
Sequence of Sodium-dependent serotonin transporter (P31645 whole entry): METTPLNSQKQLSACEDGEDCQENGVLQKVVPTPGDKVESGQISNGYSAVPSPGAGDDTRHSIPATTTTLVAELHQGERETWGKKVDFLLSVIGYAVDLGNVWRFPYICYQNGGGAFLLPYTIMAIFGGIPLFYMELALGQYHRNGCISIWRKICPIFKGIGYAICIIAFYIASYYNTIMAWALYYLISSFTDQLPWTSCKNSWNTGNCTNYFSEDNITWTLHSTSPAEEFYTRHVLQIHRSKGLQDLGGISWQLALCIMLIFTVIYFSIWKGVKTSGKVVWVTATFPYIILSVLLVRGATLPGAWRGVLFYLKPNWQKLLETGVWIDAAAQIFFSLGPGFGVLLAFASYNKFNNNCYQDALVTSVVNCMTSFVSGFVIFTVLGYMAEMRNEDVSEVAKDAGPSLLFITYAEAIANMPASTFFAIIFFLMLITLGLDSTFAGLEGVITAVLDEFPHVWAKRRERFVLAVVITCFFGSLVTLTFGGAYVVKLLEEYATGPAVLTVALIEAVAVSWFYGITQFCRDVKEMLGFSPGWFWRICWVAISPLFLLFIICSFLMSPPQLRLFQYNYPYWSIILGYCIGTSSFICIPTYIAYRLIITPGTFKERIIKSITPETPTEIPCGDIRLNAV

Sequence of 5-hydroxytryptamine receptor 1D (P28221 whole entry): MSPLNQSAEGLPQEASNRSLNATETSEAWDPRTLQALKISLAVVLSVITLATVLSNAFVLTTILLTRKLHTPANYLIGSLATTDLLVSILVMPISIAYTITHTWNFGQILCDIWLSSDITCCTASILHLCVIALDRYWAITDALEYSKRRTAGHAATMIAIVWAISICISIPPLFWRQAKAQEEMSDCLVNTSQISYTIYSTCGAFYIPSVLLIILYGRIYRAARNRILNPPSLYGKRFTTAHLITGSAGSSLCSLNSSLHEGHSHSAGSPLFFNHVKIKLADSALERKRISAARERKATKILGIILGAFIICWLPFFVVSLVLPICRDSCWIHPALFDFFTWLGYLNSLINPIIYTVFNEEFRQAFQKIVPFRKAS

| SMILES | Ki ([1]; read-out: Ki) [nM] | Ki ([1]; read-out: pKi (converted)) [nM] | Ki ([2]; read-out: Ki) [nM] | Ki ([2]; read-out: pKi (converted)) [nM] | Ki [5] [nM] | Ki [6] [nM] | Ki ([8]; read-out: Ki) [nM] | Ki ([8]; read-out: pKi (converted)) [nM] | Ki [9] [nM] | Ki ([10]; read-out: Ki) [nM] | Ki ([10]; read-out: pKi (converted)) [nM] | pKi [11] | Ki ([12]; read-out: Ki) [nM] | Ki ([12]; read-out: pKi (converted)) [nM] | Ki [14] [nM] | Ki [16] [nM] | further results |
| --- | --- | --- | --- | --- | --- | --- | --- | --- | --- | --- | --- | --- | --- | --- | --- | --- | --- |
| C=CCN(CC=C)CCc1c[nH]c2ccccc12 | < 10000 | 692 | < 10000 | 380 | 1660 | 1260 | < 10000 | 891 | 676 | < 10000 | 126 | > 5 | < 10000 | 100 | 1260 | 151 | pKi [3]: > 5; pKi [4]: > 5; Ki ([7]; read-out: Ki): < 10000 nM; Ki ([7]; read-out: pKi (converted)): 302 nM; Ki [13]: < 10000 nM; pKi [13]: 6.45; Ki [15]: 1000 nM |
| C=CCN(CC=C)CCc1c[nH]c2ccc(C)cc12 | < 10000 | 398 | < 10000 | 490 | 1260 | 1780 | < 10000 | 1100 | 692 | < 10000 | 676 | > 5 | < 10000 | 74.1 | 3160 | 363 | Ki [3]: 3240 nM; Ki [4]: 155 nM; pKi [15]: > 5 |
